Blank lines part the entries; values can stand above or below the molecule they belong to.
Experiments:
Assay type in all cases: physicochemical
[1] = Absorption characteristics of dyes in ethyl acetate; conditions: for absorption maxima wavelength (λmax): Example 1
Source text: The σp value of substituents in dyes of the present invention, the absorption maxima wavelength of these dyes in ethyl acetate and their half value widths are tabulated below.
The absorption characteristics of Dyes 1, 2, 8, 12, 23, 101, 102, 104, 105, 106, 128, 129, 130, and 131 of the present invention in ethyl acetate are as shown in FIGS. 1 to 14. In these figures, the abbreviation "ABS" in the ordinate means the absorbance. The absorption maxima wavelength (λmax) in ethyl acetate and other physical properties of the dyes of the present invention are as follows: […]

[2] = Light fastness of dye images, 17,000 lux fluorescent lamp, 7 days
Protocol: (§1) The heat transfer image-receiving materials on which recording had been made were then irradiated with light from a 17,000 lux fluorescent lamp for 7 days to examine the stability of the dyes. The heat transfer image-receiving materials were also stored at a temperature of 60° C. under dry conditions for 7 days to examine the fastness of the dyes to heat. […] For the evaluation of stability, percentage of the measurements to the initial value (1.0) were determined. The measurement was effected at λmax.
(§2) Heat transfer dye providing materials (3-1), (3-2), and (3-3) were prepared in the same manner as in Example 2 except that the polyvinyl butyral resin and dye to be incorporated in the heat transfer dye providing layer coating composition of Example 2 were replaced by the resins and dyes set forth in Table 3.
(§3) Using the same image-receiving material as prepared in Example 2, printing was made on these heat transfer dye providing materials.
as §2, with “(6-1), (6-2),” for “(3-1), (3-2),”, “(6-3)” for “(3-3)”, “6.” for “3.”

[3] = Heat fastness of dye images, 60° C. dry, 7 days (Example 2); conditions: Table 1, initial density 1.0, at λmax
Protocol: as §1

[4] = Heat fastness of dye images, 60° C. dry, 7 days, status A reflection density (Example 5); conditions: Table 4, status A reflection density 1.0
Protocol: The heat transfer image-receiving materials on which recording had been made were stored at a temperature of 60° C. under dry conditions for 7 days to examine the fastness of the dyes to heat. […] For the evaluation of stability, percentage of the measurements to the initial value (1.0) were determined.
as §3

[5] = Table 1, 17,000 lux, 7 days, initial density 1.0, at λmax, polyvinyl butyral

SMILES: CCOC(=O)c1c(C)n2c(nc1=O)C(C#N)=C(c1ccccc1)C2=Nc1ccc(N(CC)CCNS(C)(=O)=O)cc1C [Dye 1]
absorption maxima wavelength (λmax) [1]: 697 nm

SMILES: CCOC(=O)c1c(C)n2c(nc1=O)C(C#N)=C(c1ccccc1)C2=Nc1ccc(N(CC)CC)cc1 [Dye 2]
absorption maxima wavelength (λmax) [1]: 685 nm
Light fastness (% remaining) [2, 5]: 90%
Light fastness (% remaining) ([2]; Table 3, resin ethyl cellulose): 91%
Heat fastness (% remaining) [3]: 85%

SMILES: CCOC(=O)c1c(C)n2c(nc1=O)C(C#N)=C(c1ccccc1)C2=Nc1ccc(N(CC)CCOc2ccc(OC)cc2)cc1 [Dye 3]
Light fastness (% remaining) [2, 5]: 92%
Heat fastness (% remaining) [3]: 86%

SMILES: CCOC(=O)c1cn2c(nc1=O)C(C#N)=C(c1ccccc1)C2=Nc1ccc(N(CC)CC)cc1 [Dye 8]
absorption maxima wavelength (λmax) [1]: 694 nm
Light fastness (% remaining) [2, 5]: 91%
Light fastness (% remaining) ([2]; Table 3, resin polysulfone): 91%
Heat fastness (% remaining) [3]: 99%

SMILES: CCOC(=O)c1cn2c(nc1=O)C(C#N)=C(c1ccccc1)C2=Nc1ccc(N(CC)CCOc2ccc(OC)cc2)cc1 [Dye 10]
Light fastness (% remaining) [2, 5]: 93%
Heat fastness (% remaining) [3]: 100%

SMILES: CCOC(=O)c1cn2c(nc1=O)C(C#N)=C(c1ccccc1)C2=Nc1ccc(N(CC)CC)cc1NC(=O)OC [Dye 12]
absorption / hue (in words) [1]: sufficient and sharp absorption in the vicinity of 700 nm and little or no absorption in the wavelength region of longer than 800 nm
absorption maxima wavelength (λmax) [1]: 698 nm
Light fastness (% remaining) [2, 5]: 94%
Heat fastness (% remaining) [3]: 98%

SMILES: CCOC(=O)c1cn2c(nc1=O)C(C#N)=C(C#N)C2=Nc1ccc(N(CC)CC)cc1NC(=O)N(C)C [Dye 16]
Light fastness (% remaining) [2, 5]: 93%
Heat fastness (% remaining) [3]: 98%

SMILES: CCN(CC)c1ccc(N=C2C(C#N)=C(c3ccccc3)c3nc(=O)ccn32)c(NC(C)=O)c1 [Dye 17]
Light fastness (% remaining) [2, 5]: 91%
Heat fastness (% remaining) [3]: 95%

SMILES: CCN(CC)c1ccc(N=C2C(c3ccccc3)=C(C#N)c3nc(=O)c4ccccc4n32)c(NC(C)=O)c1 [Dye 22]
Light fastness (% remaining) [2, 5]: 91%
Heat fastness (% remaining) [3]: 85%

SMILES: CCOC(=O)C1=C(C#N)C(=Nc2ccc(N(CC)CC)cc2)n2c1nc1ccccc1c2=O [Dye 29]
Light fastness (% remaining) [2, 5]: 90%
Heat fastness (% remaining) [3]: 86%

SMILES: CCOC(=O)C1=C(c2ccccc2)C(=Nc2ccc(N(CC)CCNS(C)(=O)=O)cc2C)N=C1Cl [Dye 105]
Half value width [1]: 82 nm
absorption / hue (in words) [1]: in a slightly short wavelength range but exhibit a cyan hue
half value width (in words) [1]: large half value width
absorption maxima wavelength (λmax) [1]: 582 nm

SMILES: CCN(CC)c1ccc(N=C2N=C(c3ccccc3)C(C#N)=C2c2ccccc2)c(C)c1 [Dye 114]
Light fastness (% remaining) ([2]; Table 6, resin cellulose acetobutyrate): 93%
Heat fastness (% remaining) [4]: 91%

SMILES: CCN(CCOc1ccc(OC)cc1)c1ccc(N=C2N=C(c3ccccc3)C(C#N)=C2NC(=O)C(C)(C)C)cc1 [Dye 115]
Light fastness (% remaining) ([2]; Table 6, resin polysulfone): 92%
Heat fastness (% remaining) [4]: 90%

SMILES: CCN(CC)c1ccc(N=C2N=C(c3ccccc3Cl)C(C(C)(C)C)=C2C#N)c(NC(=O)C(C)(C)C)c1 [Dye 118]
Heat fastness (% remaining) [4]: 91%

SMILES: CCN(CCC#N)c1ccc(N=C2N=C(NC(=O)C(C)(C)C)C(C#N)=C2C#N)cc1 [Dye 119]
Heat fastness (% remaining) [4]: 90%

SMILES: CCN(CCOc1ccc(C(=O)c2ccccc2)c(O)c1)c1ccc(N=C2N=C(c3ccccc3)C(C#N)=C2c2cccs2)cc1 [Dye 120]
Heat fastness (% remaining) [4]: 98%

SMILES: CCC(Oc1ccc(C(C)(C)CC)cc1C(C)(C)CC)C(=O)NC1=NC(=Nc2ccc(N(CC)CCNS(C)(=O)=O)cc2C)C(C(N)=O)=C1C(N)=O (stereo not drawn) [Dye 131]
Half value width [1]: 98 nm
half value width (in words) [1]: large half value width
Absorption maxima ([1]; first table): 629 nm

SMILES: CCC1=C(Cl)C(=O)C(NC(=O)c2ccco2)=CC1=Nc1ccc(N(CC)CC)cc1 [Dye a, reference compound]
Light fastness (% remaining) [2, 5]: 87%
Heat fastness (% remaining) [3]: 88%

SMILES: CCN(CC)c1ccc(N=C2C=C(NC(=O)c3ccco3)C(=O)C(Cl)=C2C)cc1 [Dye b, reference compound]
Heat fastness (% remaining) [4]: 83%

The next lines start with results.

Light fastness (% remaining) [2, 5]: 91%
Light fastness (% remaining) ([2]; Table 3, resin cellulose acetobutyrate): 92%
Heat fastness (% remaining) [3]: 85%
SMILES: CCOC(=O)c1c(C)n2c(nc1=O)C(C#N)=C(c1ccccc1)C2=Nc1ccc(N(CC)CC)cc1NC(=O)OC [Dye 4]

absorption maxima wavelength (λmax) [1]: 658 nm
SMILES: CCCCCCCCCCCCCCCCCCOc1ccc(-c2cc(=O)n3c(n2)C(C#N)=C(c2ccccc2)C3=Nc2ccc(N(CC)CCNS(C)(=O)=O)cc2C)cc1 [Dye 23]

Half value width [1]: 65 nm
absorption / hue (in words) [1]: long absorption maxima wavelength
half value width (in words) [1]: sufficiently small
absorption maxima wavelength (λmax) [1]: 660 nm
SMILES: CCCCCCCCCCCCC(SC1=NC(=Nc2ccc(N(CC)CCNS(C)(=O)=O)cc2C)C(C#N)=C1C(=O)OCC)C(=O)OCC (stereo not drawn) [Dye 101]

Half value width [1]: 69 nm
absorption / hue (in words) [1]: long absorption maxima wavelength
half value width (in words) [1]: sufficiently small
absorption maxima wavelength (λmax) [1]: 655 nm
SMILES: CCCCCCCCCCCCSC1=NC(=Nc2ccc(N(CC)CCNS(C)(=O)=O)cc2C)C(C#N)=C1C(=O)OCC [Dye 102]

Half value width [1]: 78 nm
half value width (in words) [1]: large half value width
absorption maxima wavelength (λmax) [1]: 601 nm
SMILES: CCC(Oc1ccc(C(C)(C)CC)cc1C(C)(C)CC)C(=O)NC1=C(C#N)C(c2ccccc2)=NC1=Nc1ccc(N(CC)CCNS(C)(=O)=O)cc1C (stereo not drawn) [Dye 104]
absorption / hue (in words) [1]: in a slightly short wavelength range but exhibit a cyan hue

Half value width [1]: 79 nm
absorption maxima wavelength (λmax) [1]: 641 nm
SMILES: CCN(CCNS(C)(=O)=O)c1ccc(N=C2N=C(N)C(C#N)=C2C#N)c(C)c1 [Dye 106]

Light fastness (% remaining) ([2]; Table 6, resin ethyl cellulose): 91%
Heat fastness (% remaining) [4]: 90%
SMILES: CCN(CC)c1ccc(N=C2N=C(NC(=O)C(C)(C)C)C(C#N)=C2C#N)cc1 [Dye 113]

Heat fastness (% remaining) [4]: 89%
SMILES: CCN(CC)c1ccc(N=C2N=C(c3ccccc3NC(=O)C(C)(C)C)C(C#N)=C2c2ccccc2)cc1 [Dye 116]

Heat fastness (% remaining) [4]: 94%
SMILES: CCN(CC)c1ccc(N=C2N=C(c3ccccc3)C(C#N)=C2C(C)(C)C)c(NC(=O)N2CCOCC2)c1 [Dye 117]

Half value width [1]: 64 nm
absorption / hue (in words) [1]: long absorption maxima wavelength
half value width (in words) [1]: sufficiently small
absorption maxima wavelength (λmax) [1]: 658 nm
SMILES: CCN(CCNS(C)(=O)=O)c1ccc(N=C2N=C(NC(C)=O)C(C#N)=C2C#N)c(C)c1 [Dye 128]

Half value width [1]: 79 nm
absorption / hue (in words) [1]: long absorption maxima wavelength
half value width (in words) [1]: sufficiently small
absorption maxima wavelength (λmax) [1]: 677 nm
SMILES: CCN(CCNS(C)(=O)=O)c1ccc(N=C2N=C(NC(=O)Nc3ccccc3)C(C#N)=C2C#N)c(C)c1 [Dye 129]

Half value width [1]: 120 nm
half value width (in words) [1]: large half value width
absorption maxima wavelength (λmax) [1]: 639 nm
SMILES: CCCCCCCCCCCCCCCCS(=O)(=O)Nc1ccc(Cl)c(NC(=O)NC2=NC(=Nc3ccc(N(CC)CCNS(C)(=O)=O)cc3)C(C(N)=O)=C2C(N)=O)c1 [Dye 130]

Reference: patent US5344933A, “Pyrrole ring-or condensed pyrrole ring-containing azomethine dye” (Fuji Photo Film Co., Ltd., priority 1991, dated 1994)
